Molecules are shown by their SMILES. Bounds are passed on as bounds.

The subject of one test is NF-κB mediated transcription. Description: NF-κB driven β-lactamase reporter assay in ECV-304 NF-κB.βlaZ cells (AURORA CCF2 fluorescence). The format is cell-based, human. The settings on record: 10 μM compound; ECV-304 NF-κB.βlaZ cells stimulated with 10 ng/mL TNF-α or 100 pg/mL IL-1β, 6 hours at 37° C.; inhibition of maximum blue/green ratio. The essentials:
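ECV-304 cells (clone 1E8) stably carrying a β-lactamase reporter driven by 5 HIV-1 NF-κB sites, plated in M-199 with 2% FBS, compound at 10 μM final. CCF2 read at 395 nm excitation, blue 460 nm/green 530 nm emission ratio; IC50 from dose-response curve.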
Take `CC(C)c1cccc(C(C)C)c1OS(=O)(=O)NC(=O)NCC1(c2ccc(N(C)C)cc2)CCCC1` [Example 217, Sulfamic acid, [[[[1-[4-(dimethylamino)phenyl]cyclopenty]methyl]-amino]carbonyl]-2,6-bis(1-methylethyl)phenyl ester]: the “Percent Inhibition at 10 μM” value was found to be 37.08%.

Still in this test, the particulars now being: Homo sapiens, ECV-304, 6 h, 10 μM compound; ECV-304 NF-κB.βlaZ cells stimulated with 10 ng/mL TNF-α or 100 pg/mL IL-1β, 6 hours at 37° C.; inhibition of maximum blue/green ratio; read-out: Percent Inhibition at 10 μM.
For `CC(C)c1cc(C(C)C)c(CC(=O)NS(=O)(=O)Oc2c(C(C)C)cc(NC(=O)Nc3c(C(C)C)cccc3C(C)C)cc2C(C)C)c(C(C)C)c1` [Example 215, [(2,4,6-Triisopropyl-phenyl)-acetyl]-sulfamic acid 4-[3-(2,6-diisopropyl-phenyl)-ureido]-2,6-diisopropyl-phenyl ester], the inhibition at 10 µM worked out at 74.7%.

Regarding `CC(C)C[C@H](N)C(=O)Nc1cc(C(C)C)c(OS(=O)(=O)NC(=O)Cc2c(C(C)C)cc(C(C)C)cc2C(C)C)c(C(C)C)c1` [Example 216, [2-(2,4,6-Triisopropyl-phenyl)-acetyl]-sulfamic acid 4-((S)-2-amino-4-methyl-pentanoylamino)-2,6-diisopropyl-phenyl ester; compound with trifluoro-acetic acid], the inhibition at 10 µM came out at 65.4%.

With `CC(C)c1cc(C(C)C)c(CC(=O)NS(=O)(=O)Oc2c(C(C)C)cc(NC(=O)Nc3ccccc3)cc2C(C)C)c(C(C)C)c1` [Example 218, [(2,4,6-Triisopropyl-phenyl)-acetyl]-sulfamic acid 2,6-diisopropyl-4-(3-phenyl-ureido)-phenyl ester], the inhibition at 10 µM was under 10%.

Turning to `CC(C)c1cc(C(C)C)c(CC(=O)NS(=O)(=O)Oc2c(C(C)C)cc(NC(=O)NC(C)(C)C)cc2C(C)C)c(C(C)C)c1` [Example 219, [(2,4,6-Triisopropyl-phenyl)-acetyl]-sulfamic acid 4-(3-tert-butyl-ureido)-2,6-diisopropyl-phenyl ester], the inhibition at 10 µM amounted to 15.2%.

As to `CC(C)c1cc(C(C)C)c(CC(=O)NS(=O)(=O)Oc2c(C(C)C)cc(NC(=O)CCN)cc2C(C)C)c(C(C)C)c1` [Example 220, [2-(2,4,6-Triisopropyl-phenyl)-acetyl]-sulfamic acid 4-(3-amino-propionylamino)-2,6-diisopropyl-phenyl ester; compound with trifluoro-acetic acid], the inhibition at 10 µM was 65.5%.

On to `CC(C)c1cccc(C(C)C)c1OS(=O)(=O)NC(=O)N1CCc2ccccc21` [Example 222, (2,3-Dihydro-indole-1-carbonyl)-sulfamic acid 2,6-diisopropyl-phenyl ester], for which the inhibition at 10 µM is under 10%.

Turning to `CC(C)c1cccc(C(C)C)c1OS(=O)(=O)NC(=O)NC(c1ccccc1)(c1ccccc1)c1ccccc1` [Example 223, Sulfamic acid, [[(triphenylmethyl)amino]carbonyl]-, 2,6-bis(1-methylethyl)phenyl ester], the inhibition at 10 µM turned out to be 68.2%.

Consider `CC(C)c1cc(C(C)C)c(CC(=O)NS(=O)(=O)Oc2c(C(C)C)cc(C=CC#N)cc2C(C)C)c(C(C)C)c1` [Example 224, [(2,4,6-Triisopropyl-phenyl)-acetyl]-sulfamic acid 4-(2-cyano-vinyl)-2,6-diisopropyl-phenyl ester], for which the inhibition at 10 µM was under 10%.

Take `CC(C)c1cc(C(C)C)c(CC(=O)NS(=O)(=O)Oc2c(C(C)C)cc(NS(=O)(=O)c3cccs3)cc2C(C)C)c(C(C)C)c1` [Example 225, [(2,4,6-Triisopropyl-phenyl)-acetyl]-sulfamic acid 2,6-diisopropyl-4-(thiophene-2-sulfonylamino)-phenyl ester]: the inhibition at 10 µM stood at 26.4%.

Staying with this test, now noted: Homo sapiens; 10 μM compound; ECV-304 NF-κB.βlaZ cells stimulated with 10 ng/mL TNF-α or 100 pg/mL IL-1β, 6 hours at 37° C.; inhibition of maximum blue/green ratio; read-out: Percent Inhibition at 10 μM.
Regarding `CC(C)(C)c1cccc(C(C)(C)C)c1OC(=O)NS(=O)(=O)Nc1ccccc1Cc1ccccc1` [Example 221, Carbamic acid, [[[2-(phenylmethyl)phenyl]amino]sulfonyl]-, 2,6-bis(1,1-dimethylethyl)phenyl ester], the inhibition at 10 µM was 44.7%.

The values above are taken from US20020183384A1, “Methods of treating nuclear factor-kappa B mediated diseases and disorders” (priority 2001, published 2002).
